Patent publication US20250177396A1, “POLO-LIKE KINASE 4 (PLK4) INHIBITORS, PHARMACEUTICAL COMPOSITIONS, METHODS OF PREPARATION AND USES THEREOF” (Repare Therapeutics Inc., priority 2022, published 2025)

These molecules were tested against T1, PLK4 (Homo sapiens, UniProt O00444) (assay: PLK4 NanoBRET target engagement assay). Settings: HEK293 T cells transfected with PLK4 NanoLuc fusion vector; K-5 tracer; 2 hrs incubation.
T1 construct: expressed in transfected cells; host or cells: HEK293 T cells (ATCC CRL-3216)
T1 sequence (O00444 1-970): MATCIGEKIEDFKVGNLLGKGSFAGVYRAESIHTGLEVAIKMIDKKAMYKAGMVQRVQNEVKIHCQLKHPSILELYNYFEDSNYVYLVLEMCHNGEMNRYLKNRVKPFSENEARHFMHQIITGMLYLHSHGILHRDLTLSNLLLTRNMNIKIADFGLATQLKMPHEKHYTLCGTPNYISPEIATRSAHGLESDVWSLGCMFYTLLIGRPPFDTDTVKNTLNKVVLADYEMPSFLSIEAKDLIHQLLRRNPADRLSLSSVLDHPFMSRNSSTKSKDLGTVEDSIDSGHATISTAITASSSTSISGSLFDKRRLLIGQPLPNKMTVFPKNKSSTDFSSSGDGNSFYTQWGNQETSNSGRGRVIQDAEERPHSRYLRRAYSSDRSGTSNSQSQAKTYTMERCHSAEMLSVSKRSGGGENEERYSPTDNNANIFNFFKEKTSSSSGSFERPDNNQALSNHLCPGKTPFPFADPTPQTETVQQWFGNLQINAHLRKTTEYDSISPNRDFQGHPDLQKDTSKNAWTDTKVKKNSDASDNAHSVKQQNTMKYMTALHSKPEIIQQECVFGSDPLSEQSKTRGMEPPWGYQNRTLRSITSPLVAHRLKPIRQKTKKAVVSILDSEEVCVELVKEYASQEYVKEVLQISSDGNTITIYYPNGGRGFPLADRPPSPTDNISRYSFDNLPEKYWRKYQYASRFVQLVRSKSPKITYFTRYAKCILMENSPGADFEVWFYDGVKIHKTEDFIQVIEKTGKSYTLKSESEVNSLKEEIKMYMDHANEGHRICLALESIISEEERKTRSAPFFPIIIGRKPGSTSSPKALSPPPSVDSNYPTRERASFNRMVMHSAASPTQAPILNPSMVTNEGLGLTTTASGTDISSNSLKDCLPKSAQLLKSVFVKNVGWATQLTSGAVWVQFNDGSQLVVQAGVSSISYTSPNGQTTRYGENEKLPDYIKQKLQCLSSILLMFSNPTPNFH
Assay type: binding
Summary of the method: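 HEK293T cells transiently expressing PLK4-NanoLuc, plated at 17000 cells/well with K-5 tracer and compound, incubated 2 h at 37 °C/5% CO2. After substrate/inhibitor mix, 610/450 nm emission ratio ×1000 gave mBRET; IC50 from 4-parameter fit.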

Row | Structure (SMILES) | IC50
1 | Cc1cc(Nc2nc(N(C)c3c(F)cc(S(C)(=O)=O)cc3F)nc(-c3cn(C)c(CO)n3)c2C2CC2)n[nH]1 [Compound 167] | 0.03 µM
2 | Cc1cc(Nc2nc(N(C)c3c(F)cc(S(C)(=O)=O)cc3F)nc(-c3nc(C)[nH]c3C)c2C2CC2)n[nH]1 [Compound 168] | 0.041 µM
3 | Cc1cc(Nc2nc(N(C)c3c(F)cc(S(C)(=O)=O)cc3F)nc(-c3ccn(CCO)n3)c2C2CC2)n[nH]1 [Compound 169] | 0.004 µM
4 | Cc1cc(Nc2nc(N(C)c3c(F)cc(S(C)(=O)=O)cc3F)nc(-c3cnn(CC(=O)N(C)C)c3)c2C2CC2)n[nH]1 [Compound 170] | 0.011 µM
5 | CNC(=O)Cn1cc(-c2nc(N(C)c3c(F)cc(S(C)(=O)=O)cc3F)nc(Nc3cc(C)[nH]n3)c2C2CC2)cn1 [Compound 171] | 0.023 µM
6 | Cc1cc(Nc2nc(N(C)c3c(F)cc(S(C)(=O)=O)cc3F)nc(-c3cnn(CCS(C)(=O)=O)c3)c2C2CC2)n[nH]1 [Compound 172] | 0.006 µM
7 | Cc1cc(Nc2nc(N(C)c3c(F)cc(S(C)(=O)=O)cc3F)nc(-c3ncn(C)c3C#N)c2C2CC2)n[nH]1 [Compound 173] | 0.36 µM
8 | Cc1cc(Nc2nc(N(C)c3c(F)cc(S(C)(=O)=O)cc3F)nc(-c3cnn4c3CCC4)c2C2CC2)n[nH]1 [Compound 175] | 0.004 µM
9 | Cc1cc(Nc2nc(N(C)c3c(F)cc(S(C)(=O)=O)cc3F)nc(-c3cnn4c3CC(C)(C)C4)c2C2CC2)n[nH]1 [Compound 176] | 0.013 µM
10 | Cc1cc(Nc2nc(N(C)c3c(F)cc(S(C)(=O)=O)cc3F)nc(-c3cn(C(CO)CO)nc3C)c2C2CC2)n[nH]1 [Compound 177] | 0.038 µM
11 | Cc1cc(Nc2nc(N(C)c3c(F)cc(S(C)(=O)=O)cc3F)nc(-c3cc(CO)n(C)n3)c2C2CC2)n[nH]1 [Compound 178] | 0.011 µM
12 | Cc1cc(Nc2nc(N(C)c3c(F)cc(S(C)(=O)=O)cc3F)nc(C(N)=O)c2C2CC2)n[nH]1 [Compound 179] | 0.26 µM
13 | Cc1cc(Nc2nc(N(C)c3c(F)cc(S(C)(=O)=O)cc3F)nc(-c3cn(C4COC4)nc3C)c2C2CC2)n[nH]1 [Compound 180] | 0.004 µM
14 | Cc1cc(Nc2nc(N(C)c3c(F)cc(S(C)(=O)=O)cc3F)nc(-c3cnn(C)c3N)c2C2CC2)n[nH]1 [Compound 181] | 0.029 µM
15 | Cc1cc(Nc2nc(N(C)c3c(F)cc(S(C)(=O)=O)cc3F)nc(-c3cnn4c3COCC4)c2C2CC2)n[nH]1 [Compound 182] | 0.011 µM
16 | Cc1cc(Nc2nc(N(C)c3c(F)cc(S(C)(=O)=O)cc3F)nc(-c3cnc4n3CCC4)c2C2CC2)n[nH]1 [Compound 183] | 0.013 µM
17 | Cc1cc(Nc2nc(N(C)c3c(F)cc(S(C)(=O)=O)cc3F)nc(N3CCN(C)C(=O)C3)c2C2CC2)n[nH]1 [Compound 184] | 0.033 µM
18 | Cc1cc(Nc2nc(N(C)c3c(F)cc(S(C)(=O)=O)cc3F)nc(-c3cn(C4CCOCC4)nc3C)c2C2CC2)n[nH]1 [Compound 185] | 0.021 µM
19 | Cc1cc(Nc2nc(N(C)c3c(F)cc(S(C)(=O)=O)cc3F)nc(-c3cnn(C4CS(=O)(=O)C4)c3)c2C2CC2)n[nH]1 [Compound 186] | 0.017 µM
20 | Cc1cc(Nc2nc(N(C)c3cc(F)c(S(C)(=O)=O)cc3F)nc(-c3cn(C)c(C)n3)c2C2CC2)n[nH]1 [Compound 187] | 0.013 µM
21 | COCCn1cc(-c2nc(N(C)c3c(F)cc(S(C)(=O)=O)cc3F)nc(Nc3cc(C)[nH]n3)c2C2CC2)nc1C [Compound 188] | 0.008 µM
22 | Cc1cc(Nc2nc(Nc3c(F)cc(S(C)(=O)=O)cc3F)nc(-c3cn(C)cn3)c2C2CC2)n[nH]1 [Compound 189] | 0.15 µM
23 | Cc1cc(Nc2nc(N(C)c3c(F)cc(S(C)(=O)=O)cc3F)nc(-c3cn(CCS(C)(=O)=O)c(C)n3)c2C2CC2)n[nH]1 [Compound 192] | 0.61 µM
24 | Cc1cc(Nc2nc(N(C)c3c(F)cc(S(C)(=O)=O)cc3F)nc(-c3cnn([C@H]4CC[C@H](O)CC4)c3)c2C2CC2)n[nH]1 [Compound 193] | 0.003 µM
25 | Cc1cc(Nc2nc(N(C)c3cc(F)c(S(C)(=O)=O)cc3F)nc(-c3ccn(C(F)F)n3)c2C2CC2)n[nH]1 [Compound 194] | 0.063 µM
26 | Cc1cc(Nc2nc(N(C)c3cc(F)c(S(C)(=O)=O)cc3F)nc(-c3cn4c(n3)CCC4)c2C2CC2)n[nH]1 [Compound 197] | 0.024 µM
27 | Cc1cc(Nc2nc(N(C)c3c(F)cc(S(C)(=O)=O)cc3F)nc(-c3cn(C)nc3C3CC3)c2C2CC2)n[nH]1 [Compound 198] | 0.004 µM

Row | Structure (SMILES) | IC50
28 | Cc1cc(Nc2nc(N(C)c3ccc(S(C)(=O)=O)cc3F)nc(-c3cn(C(C)C)cn3)c2C2CC2)n[nH]1 [Compound 199] | 0.017 µM
29 | Cc1cc(Nc2nc(N(C)c3cc(F)c(S(C)(=O)=O)cc3F)nc(-c3cn(C(C)C)cn3)c2C2CC2)n[nH]1 [Compound 200] | 0.008 µM
30 | Cc1cc(Nc2nc(N(C)c3c(F)cc(S(C)(=O)=O)cc3F)nc(-c3cnn(CCO)c3C)c2C2CC2)n[nH]1 [Compound 201] | 0.007 µM
31 | Cc1cc(Nc2nc(N(C)c3c(F)cc(S(C)(=O)=O)cc3F)nc(-c3cn(CCO)nc3C)c2C2CC2)n[nH]1 [Compound 202] | 0.006 µM
32 | Cc1cc(Nc2nc(N(C)c3c(F)cc(S(C)(=O)=O)cc3F)nc(-c3cnn4c3OCCC4)c2C2CC2)n[nH]1 [Compound 203] | 0.006 µM
33 | Cc1cc(Nc2nc(N(C)c3c(F)cc(S(C)(=O)=O)cc3F)nc(-c3cn(C)c(C#N)n3)c2C2CC2)n[nH]1 [Compound 204] | 0.008 µM
34 | Cc1cc(Nc2nc(N(C)c3c(F)cc(S(C)(=O)=O)cc3F)nc(-c3ccn(C)c(=O)c3)c2C2CC2)n[nH]1 [Compound 205] | 0.022 µM
35 | Cc1cc(Nc2nc(N(C)c3c(F)cc(S(C)(=O)=O)cc3F)nc(-c3cnn(CC#N)c3)c2C2CC2)n[nH]1 [Compound 206] | 0.004 µM
36 | Cc1cc(Nc2nc(N(C)c3cc(F)c(S(C)(=O)=O)cc3F)nc(-c3cn(C4CC4)cn3)c2C2CC2)n[nH]1 [Compound 207] | 0.006 µM
37 | Cc1cc(Nc2nc(N(C)c3ccc(S(C)(=O)=O)cc3F)nc(-c3cn(C4CC4)cn3)c2C2CC2)n[nH]1 [Compound 208] | 0.009 µM
38 | Cc1cc(Nc2nc(N(C)c3c(F)cc(S(C)(=O)=O)cc3F)nc(-c3ccn(C4CC4)n3)c2C2CC2)n[nH]1 [Compound 209] | 0.005 µM
39 | Cc1cc(Nc2nc(N(C)c3cc(F)c(S(C)(=O)=O)cc3F)nc(-c3cn4c(n3)CCOC4)c2C2CC2)n[nH]1 [Compound 210] | 0.008 µM
40 | Cc1cc(Nc2nc(N(C)c3c(F)cc(S(C)(=O)=O)cc3F)nc(-c3cn4c(n3)CNCC4)c2C2CC2)n[nH]1 [Compound 211] | 0.04 µM
41 | CC(=O)N1CCn2cc(-c3nc(N(C)c4c(F)cc(S(C)(=O)=O)cc4F)nc(Nc4cc(C)[nH]n4)c3C3CC3)nc2C1 [Compound 212] | 0.053 µM
42 | Cc1cc(Nc2nc(N(C)c3c(F)cc(S(C)(=O)=O)cc3F)nc(-c3cnn(CC(C)(C)O)c3)c2C2CC2)n[nH]1 [Compound 213] | 0.006 µM
43 | Cc1cc(Nc2nc(N(C)c3c(F)cc(S(C)(=O)=O)cc3F)nc(-c3ncn(C)n3)c2C2CC2)n[nH]1 [Compound 215] | 0.069 µM
44 | Cc1cc(Nc2nc(N(C)c3c(F)cc(S(C)(=O)=O)cc3F)nc(-c3ncnn3C)c2C2CC2)n[nH]1 [Compound 216] | 0.19 µM
45 | Cc1cc(Nc2nc(N(C)c3c(F)cc(S(C)(=O)=O)cc3F)nc(-c3cn(C)c(C(C)O)n3)c2C2CC2)n[nH]1 (centres unmarked) [Compound 217] | 0.019 µM
46 | Cc1cc(Nc2nc(N(C)c3c(F)cc(S(C)(=O)=O)cc3F)nc(-c3nn(C)cc3CO)c2C2CC2)n[nH]1 [Compound 218] | 0.053 µM
47 | COCCn1cc(-c2nc(N(C)c3ccc(S(C)(=O)=O)cc3F)nc(Nc3cc(C)[nH]n3)c2C2CC2)c(C)n1 [Compound 219] | 0.018 µM
48 | COCCn1ncc(-c2nc(N(C)c3ccc(S(C)(=O)=O)cc3F)nc(Nc3cc(C)[nH]n3)c2C2CC2)c1C [Compound 220] | 0.038 µM
49 | COCCn1cc(-c2nc(N(C)c3cc(F)c(S(C)(=O)=O)cc3F)nc(Nc3cc(C)[nH]n3)c2C2CC2)c(C)n1 [Compound 221] | 0.012 µM
50 | COCCn1ncc(-c2nc(N(C)c3cc(F)c(S(C)(=O)=O)cc3F)nc(Nc3cc(C)[nH]n3)c2C2CC2)c1C [Compound 222] | 0.015 µM
51 | Cc1cc(Nc2nc(N(C)c3cc(F)c(S(C)(=O)=O)cc3F)nc(-c3cnn([C@H]4CC[C@H](O)CC4)c3)c2C2CC2)n[nH]1 [Compound 223] | 0.009 µM
52 | COCCn1cc(-c2nc(N(C)c3cc(F)c(S(C)(=O)=O)cc3F)nc(Nc3cc(C)[nH]n3)c2C2CC2)nc1C [Compound 224] | 0.013 µM
53 | Cc1cc(Nc2nc(N(C)c3c(F)cc(S(C)(=O)=O)cc3F)nc(-c3cn(CCO)cn3)c2C2CC2)n[nH]1 [Compound 225] | 0.089 µM
